According to patent US20190374574A1, “COMPOSITION FOR THE TREATMENT OF GASTROINTESTINAL DISORDERS” (NEILOS S.R.L., priority 2017, published 2019):
Read-outs that look alike come from different tables or passages of the source.

Columns and labels:
[1] = system: Male mice of the ICR strain; test: Diarrhoea induced by castor oil in mice; format: in vivo; settings: oral; for effect on diarrhoea induced by castor oil (percentage of mice that exhibited diarrhoea at the second hour): 30 minutes before castor oil 0.2 ml/mouse, evaluated 2 hours after castor oil, vs control
Procedure: In the following tests, the effect of two formulations and their individual constituents was evaluated in order to determine a possible synergistic effect among the individual components on diarrhoea induced by castor oil.
Male mice of the ICR strain supplied by the company Charles River and weighing 20-25 g were used. The animals were housed in temperature-controlled rooms (temperature of 23±2° C., humidity of 50±2%, 12-hour light-dark cycles) and had free access to water and food, consisting of a standard diet supplied by the company Mucedola Mangimi (Settimo Milanese, Italy). All experiments were performed in observance of Legislative Decree no. 116 of 27 Jan. 1992 and according to the guidelines of the Council of the European Union (86/609/EEC and 2010/63/EU).
The technique of Borrelli et al. (Borrelli F, Capasso F, Capasso R, Ascione V, Aviello G, Longo R, Izzo A A (2006). “Effect of Boswellia serrata on intestinal motility in rodents: inhibition of diarrhoea without constipation” Br J Pharmacol 148:553-560) was used. In practical terms, the mice were fasted for a period of 12 hours and then isolated in individual cages provided with a mesh on the bottom, set 5 cm above a sheet of absorbent paper. This enabled inspection of the excreted faeces. 30 minutes after administration of the samples to be tested, the animals received 0.2 ml of castor oil by means of a gastric probe. The diarrhoea was evaluated 15 minutes after the administration of the cathartic agent and every 15 minutes until the second hour. […]
Two formulations (according to the invention) were evaluated, consisting, respectively, of activated charcoal, Carum carvi, papain, α-galactosidase and β-galactosidase (total formulation) and activated charcoal, Carum carvi and papain (partial formulation). […]
The results are expressed as the mean±standard error of the mean (S.E.M.). The difference between two means was evaluated by means of Student's t-test. […]

[2] = system: patients with lactose intolerance; settings: cited from earlier work; for reduction in the hydrogen concentration compared to the placebo: p<0.001; for hydrogen concentration in expired air: placebo 51.46±16.12

## β-galactosidase
[1]
  effect on diarrhoea induced by castor oil (percentage of mice that exhibited diarrhoea at the second hour): not capable of modifying the cathartic effect of the castor oil
[2]; group A: 3000 U of lactase added to milk 10 hours prior to administration
  reduction in the hydrogen concentration compared to the placebo: 77%
[2]; group A: 3000 U of lactase added to milk 10 hours prior
  hydrogen concentration in expired air: 12.07±7.8 p.p.m.
[2]; group B: 6000 U of lactase added to milk 5 minutes prior to ingestion
  reduction in the hydrogen concentration compared to the placebo: 73%
[2]; group B: 6000 U of lactase added to milk 5 minutes prior
  hydrogen concentration in expired air: 13.97±7.99 p.p.m.
[2]; groups A and B
  cumulative quantity of expired hydrogen vs group C (placebo): significantly lower

B1: Papain: Papain (CAS N. 9001-73-4), cysteine-protease from Carica papaya, activity greater than or equal to 2.5 FIP UI/mg (protein, UniProt P00784 134-345, looked up)
Papain: IPEYVDWRQKGAVTPVKNQGSCGSCWAFSAVVTIEGIIKIRTGNLNEYSEQELLDCDRRSYGCNGGYPWSALQLVAQYGIHYRNTYPYEGVQRYCRSREKGPYAAKTDGVRQVQPYNEGALLYSIANQPVSVVLEAAGKDFQLYRGGIFVGPCGNKVDHAVAAVGYGPNYILIKNSWGTGWGENGYIRIKRGTGNSYGVCGLYTSSFYPVKN
[1]
  effect on diarrhoea induced by castor oil (percentage of mice that exhibited diarrhoea at the second hour): significantly reduced diarrhoea
[1]; 2 hours after castor oil
  dose at which the reduction of castor oil diarrhoea was significant: 30 mg/kg
